# Data as given in patent US20180044343A1, “BICYCLIC IMIDAZOLO DERIVATIVE” (Sumitomo Dainippon Pharma Co., Ltd., priority 2015, published 2018).
# pIC50: −log10 of the molar value.
# Target: PDE1B (Homo sapiens, UniProt Q01064)
# Test: In vitro HTRF PDE1 inhibition assay (PDE1B)
# Assay type: biochemical
# Conditions: in vitro PDE1B HTRF Assay; read-out: IC50
# Excerpt: The HTRF PDE1 assay utilized the HTRF (Homogenous Time Resolved Fluorescence) technology, which is based on the competition between unlabeled cyclic nucleotide and cyclic nucleotide labeled with XL665 for the binding to cyclic nucleotide-specific antibody labeled with cryptate. The HTRF signal is thus inversely proportional to the concentration of cyclic nucleotide being measured. Since phosphodiesterases break down cyclic nucleotides, the HTRF signal was used to determine PDE activity.
# The Cisbio cGMP HTRF assay kit (Cat no: 62GM2PEC) was utilized. Cyclic GMP was diluted to 200 nM in HTRF assay buffer (1 mM CaCl2, 10 mM MgCl2, 10 mM Tris-HCl, 0.1% BSA, pH 7.4). […] PDE (1A3, 1B or 1C) was diluted to 2× working concentration in HTRF assay buffer with 2 μg/ml Calmodulin, and 10 μl was added to initiate the reaction. The plate was then incubated for 45 minutes at 27° C. d2-Labelled cyclic GMP and anti-cGMP cryptate were diluted in 50 mM phosphate buffer, 0.8 M KF, 1% Triton X100, 0.2% BSA, pH 7.0. Following incubation 10 μl d2-cGMP, then 10 μl anti cGMP cryptate were added to each well and the plate was incubated for 60 minutes at room temperature. The plate was then read on Perkin Elmer EnVision at 2 different FRET readings ex/em 340 nm/665 nm and 340 nm/615 nm.
# PDE1B, sequence (Q01064 whole entry): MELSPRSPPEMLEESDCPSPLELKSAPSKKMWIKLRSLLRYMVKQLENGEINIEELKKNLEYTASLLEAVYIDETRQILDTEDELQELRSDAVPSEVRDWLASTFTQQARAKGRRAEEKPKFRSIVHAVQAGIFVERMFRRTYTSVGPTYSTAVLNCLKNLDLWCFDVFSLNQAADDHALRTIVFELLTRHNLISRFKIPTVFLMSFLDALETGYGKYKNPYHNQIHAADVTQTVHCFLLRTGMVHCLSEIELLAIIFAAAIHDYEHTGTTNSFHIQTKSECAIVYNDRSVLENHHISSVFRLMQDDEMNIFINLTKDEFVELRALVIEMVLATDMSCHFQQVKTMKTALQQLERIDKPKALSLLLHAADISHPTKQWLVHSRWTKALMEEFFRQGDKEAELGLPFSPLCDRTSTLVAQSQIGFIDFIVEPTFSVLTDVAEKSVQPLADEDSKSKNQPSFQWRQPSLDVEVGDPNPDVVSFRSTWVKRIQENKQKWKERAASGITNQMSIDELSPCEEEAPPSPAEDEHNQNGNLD
row,SMILES,pIC50
1,"CC(C)c1ncc2c(=O)n(C)c(CN3CCCc4cc(Cl)ccc43)nn12 [Example 229, 2-[(6-Chloro-3,4-dihydroquinolin-1(2H)-yl)methyl]-3-methyl-7-(propan-2-yl)imidazo[5,1-f][1,2,4]triazin-4(3H)-one]",> 6.00
2,CC(C)c1ncc2c(=O)[nH]c(N3CCC[C@H]3c3ccccc3)nn12 [Example 131],5.00 to 6.00
3,CCn1c(OCC2CC(F)(F)C2)nn2c(C3CCOCC3)ncc2c1=O [Example 87],> 6.00
4,CC(C)c1ncc2c(=O)n(C)c(N[C@@H]3CCCc4ccccc43)nn12 [Example 144],> 6.00
5,"CC(C)c1ncc2c(=O)[nH]c(N3CCC[C@@H]3c3ccc(Cl)cc3)nn12 [Example 125, 2-[(2R)-2-(4-chlorophenyl)pyrrolidin-1-yl]-7-(propan-2-yl)imidazo[5,1-f][1,2,4]triazin-4(3H)-one]",> 6.00
6,O=c1c2cnc(C3CCOCC3)n2nc(OCc2ccc(F)cc2)n1CC1CC1 [Example 99],> 6.00
7,CCn1c(OCCCOC)nn2c(C3CCOCC3)ncc2c1=O [Example 62],> 6.00
8,"CCn1c(OCC2CCC(F)(F)CC2)nn2c(C3CCOCC3)ncc2c1=S [Example 123, 2-[(4,4-Difluorocyclohexyl)methoxy]-3-ethyl-7-(tetrahydro-2H-pyran-4-yl)imidazo[5,1-f][1,2,4]triazin-4(3H)-thione]",> 6.00
9,Cn1c(OCCC2CCC(F)(F)CC2)nn2c(C3CCOCC3)ncc2c1=O [Example 39],> 6.00
10,Cn1c(OCC23CC4CC(CC(C4)C2)C3)nn2c(C3CCOCC3)ncc2c1=O [Example 298],> 6.00
11,Cn1c(OCC2CC(F)(F)C2)nn2c(C3CCOCC3)ncc2c1=O [Example 33],> 6.00
12,CCn1c(O[C@H]2CC[C@@H](COC)CC2)nn2c(C3CCOCC3)ncc2c1=O [Example 319],> 6.00
13,COC[C@H]1CC[C@H](Oc2nn3c(C4CCOCC4)ncc3c(=O)n2C)CC1 [Example 316],> 6.00
14,O=c1[nH]c(N2CCCC2c2ccccc2Cl)nn2c(C3CCOCC3)ncc12 (stereo not drawn) [Example 127],> 6.00
15,"Cn1c(OC[C@H]2CC[C@H](C(F)(F)F)CC2)nn2c(C3(O)CCCCC3)ncc2c1=O [Example 327, 7-(1-Hydroxycyclohexyl)-3-methyl-2-{[trans-4-(trifluoromethyl)cyclohexyl]-methoxy}imidazo[5,1-f][1,2,4]triazin-4(3H)-one]",5.00 to 6.00
16,CCn1c(OC[C@H]2CC[C@@H](C(F)(F)F)CC2)nn2c(C3CCOCC3)ncc2c1=O [Example 252],> 6.00
17,CC(C)Oc1nn2c(C3CCOCC3)ncc2c(=O)n1CC1CCC(F)(F)CC1 [Example 103],> 6.00
18,CCn1c(NCc2ccc(F)cn2)nn2c(C(C)C)ncc2c1=O [Example 171],> 6.00
19,CC(C)c1ncc2c(=O)n(C)c(OCc3ccncc3)nn12 [Example 15],> 6.00
20,Cn1c(NCc2ccc(Cl)cc2)nn2c(C3CCOCC3)ncc2c1=O [Example 180],> 6.00
21,COC(C)c1ncc2c(=O)n(C)c(OCC3CCC(F)(F)CC3)nn12 (stereo not drawn) [Example 112],> 6.00
22,CCn1c(OCCc2cccc(F)c2)nn2c(C3CCOCC3)ncc2c1=O [Example 75],> 6.00
23,O=c1c2cnc(C3CCOCC3)n2nc(OCC2CCC(F)(F)CC2)n1CC1CCC(F)(F)CC1 [Example 104],> 6.00
24,CCn1c(OCC2(C)COC2)nn2c(C3CCOCC3)ncc2c1=O [Example 58],> 6.00
25,Cc1ccc(CNc2nn3c(C(C)C)ncc3c(=O)n2C)nc1 [Example 153],> 6.00
26,CCn1c(OCCCc2ncccc2F)nn2c(C3CCOCC3)ncc2c1=O [Example 65],> 6.00

row,SMILES,pIC50
1,Cn1c(OCc2cccc(C#N)c2)nn2c(C3CCOCC3)ncc2c1=O [Example 29],5.00 to 6.00
2,Cn1c(OC2CCC(F)(F)CC2)nn2c(C3CCOCC3)ncc2c1=O [Example 303],> 6.00
3,"CCn1c(COc2ccc(F)cc2)nn2c(C3CCOCC3)ncc2c1=O [Example 259, 3-Ethyl-2-[(4-fluorophenoxy)methyl]-7-(tetrahydro-2H-pyran-4-yl)imidazo[5,1-f][1,2,4]triazin-4(3H)-one]",> 6.00
4,CCn1c(O[C@H]2CC[C@@H](C(F)(F)F)CC2)nn2c(C3CCOCC3)ncc2c1=O [Example 308],> 6.00
5,CCn1c(OCCCc2cccc(C)n2)nn2c(C3CCOCC3)ncc2c1=O [Example 72],> 6.00
6,COc1nn2c(C3CCOCC3)ncc2c(=O)n1CC(C)C [Example 271],> 6.00
7,Cn1c(N2CC[C@H](Oc3ccc(F)cn3)C2)nn2c(C3CCOCC3)ncc2c1=O [Example 190],> 6.00
8,CCn1c(OCC2CCCC2)nn2c(C3CCOCC3)ncc2c1=O [Example 88],> 6.00
9,"Cn1c(CCc2ccccn2)nn2c(C3CCOCC3)ncc2c1=O [Example 244, 3-Methyl-2-[2-(pyridin-2-yl)ethyl]-7-(tetrahydro-2H-pyran-4-yl)imidazo[5,1-f][1,2,4]triazin-4(3H)-one]",> 6.00
10,Cn1c(NCc2ccc(Cl)cn2)nn2c(C3CCC3)ncc2c1=O [Example 205],> 6.00
11,CCOC[C@H]1CC[C@H](COc2nn3c(C4CCOCC4)ncc3c(=O)n2CC)CC1 [Example 289],> 6.00
12,CCOC[C@H]1CC[C@@H](Oc2nn3c(C4CCOCC4)ncc3c(=O)n2CC)CC1 [Example 321],> 6.00
13,CC(C)c1ncc2c(=O)n(C)c(OCc3ccc(F)cc3)nn12 [Example 14],> 6.00
14,COc1nn2c(C3CCOCC3)ncc2c(=O)n1Cc1ccc(F)cn1 [Example 269],> 6.00
15,COc1nn2c(C3CCOCC3)ncc2c(=O)n1Cc1cccnc1 [Example 267],5.00 to 6.00
16,CCn1c(OCCc2ccccc2)nn2c(C3CCOCC3)ncc2c1=O [Example 73],> 6.00
17,CC(C)c1ncc2c(=O)[nH]c(N3CCC[C@@H]3c3ccccc3)nn12 [Example 130],> 6.00
18,COCCC1CCN(c2nn3c(C4CCOCC4)ncc3c(=O)n2C)CC1 [Example 193],> 6.00
19,CCn1c(OCCCc2ccccn2)nn2c(C3CCOCC3)ncc2c1=O [Example 63],> 6.00
20,Cn1c(OCc2ccc(-c3ccc(F)cn3)cc2)nn2c(C3CCOCC3)ncc2c1=O [Example 53],> 6.00
21,Cc1ccnc(CNc2nn3c(C(C)C)ncc3c(=O)n2C)c1 [Example 156],> 6.00
22,COCCN1CCN(c2nn3c(C4CCOCC4)ncc3c(=O)n2C)CC1 [Example 186],> 6.00
23,CCn1c(OCc2ccc(-c3ccc(F)cc3)cc2)nn2c(C3CCOCC3)ncc2c1=O [Example 80],5.00 to 6.00
24,COc1nn2c(C3CCOCC3)ncc2c(=O)n1CC1CCCCC1 [Example 275],> 6.00
25,Cn1c(O[C@H]2CC[C@H](O)CC2)nn2c(C3CCOCC3)ncc2c1=O [Example 301],> 6.00
26,CCn1c(OCc2ccc(-c3ccc(OC)cc3)cc2)nn2c(C3CCOCC3)ncc2c1=O [Example 83],> 6.00

row,SMILES,pIC50
1,"Cc1ccc([C@@H]2CCCN2c2nn3c(C(C)C)ncc3c(=O)n2C)nc1 [Example 219, 3-Methyl-2-[(2S)-2-(5-methylpyridin-2-yl)pyrrolidin-1-yl]-7-(propan-2-yl)imidazo[5,1-f][1,2,4]triazin-4(3H)-one]",> 6.00
2,CCn1c(OCCc2ccccc2F)nn2c(C3CCOCC3)ncc2c1=O [Example 74],> 6.00
3,O=c1c2cnc(C3CCOCC3)n2nc(OCC2CCC(F)(F)CC2)n1C1CC1 [Example 95],> 6.00
4,Cn1c(COc2ccc(F)cc2)nn2c(C3CCCC3)ncc2c1=O [Example 228],5.00 to 6.00
5,O=c1c2cnc(C3CCOCC3)n2nc(N2CCCC2)n1Cc1ccccc1 [Example 202],> 6.00
6,CCn1c(NCc2ccc(C)cn2)nn2c(C(C)C)ncc2c1=O [Example 170],> 6.00
7,Cn1c(OCc2ccc(Cl)cc2)nn2c(C3CCOCC3)ncc2c1=O [Example 28],> 6.00
8,Cc1ccc(OCc2nn3c(C4CCCC4)ncc3c(=O)n2C)cc1 [Example 227],5.00 to 6.00
9,O=c1[nH]c(N2CCCC2c2ccc(Cl)cc2)nn2c(C3CCOCC3)ncc12 (stereo not drawn) [Example 129],> 6.00
10,CCO[C@H]1CC[C@H](Oc2nn3c(C4CCOCC4)ncc3c(=O)n2C)CC1 [Example 314],> 6.00
11,COCCCN1CCN(c2nn3c(C4CCOCC4)ncc3c(=O)n2C)CC1 [Example 196],> 6.00
12,CC(C)c1ncc2c(=O)n(C)c(NCc3ccccc3)nn12 [Example 139],> 6.00
13,Cn1c(OCCC2(C(F)(F)F)CC2)nn2c(C3CCOCC3)ncc2c1=O [Example 282],> 6.00
14,CCn1c(OCCc2ccc(-c3ccccc3)cc2)nn2c(C3CCOCC3)ncc2c1=O [Example 77],> 6.00
15,O=c1[nH]c(N2CCC[C@H]2c2ccccc2)nn2c(C3CCOCC3)ncc12 [Example 126],> 6.00
16,CCn1c(OCC2(c3ccccc3)CC2)nn2c(C3CCOCC3)ncc2c1=O [Example 82],> 6.00
17,COC[C@H]1CC[C@H](COc2nn3c(C4CCOCC4)ncc3c(=O)n2C)CC1 [Example 286],> 6.00
18,CCn1c(OCc2cccnc2)nn2c(C(C)C)ncc2c1=O [Example 19],> 6.00
19,Cc1ccc([C@H]2CCCN2c2nn3c(C(C)C)ncc3c(=O)n2C)cc1 [Example 165],> 6.00
20,CCn1c(OC2CCCC2)nn2c(C3CCOCC3)ncc2c1=O [Example 300],> 6.00
21,CCn1c(OCCC2CCC(F)(F)CC2)nn2c(C3CCOCC3)ncc2c1=O [Example 93],> 6.00
22,Cn1c(NCCc2ccccn2)nn2c(C3CCOCC3)ncc2c1=O [Example 182],> 6.00
23,"O=c1c2cnc(C3CCOCC3)n2nc(N2CCCC2)n1CC1CC1 [Example 206, 3-(Cyclopropylmethyl)-2-(pyrrolidin-1-yl)-7-(tetrahydro-2H-pyran-4-yl)imidazo[5,1-f][1,2,4]triazin-4(3H)-one]",5.00 to 6.00
24,CCc1ccc(CNc2nn3c(C(C)C)ncc3c(=O)n2C)nc1 [Example 159],> 6.00
25,CCn1c(OCc2ccc(-c3ccccn3)cc2)nn2c(C3CCOCC3)ncc2c1=O [Example 67],> 6.00
26,CCn1c(OC(C)c2ccc(F)cc2)nn2c(C3CCOCC3)ncc2c1=O (stereo not drawn) [Example 69],> 6.00
